In PMC11969996, “Minimalistic bis-triarylpyridinium cations: effective antimicrobials against bacterial and fungal pathogens” (RSC Medicinal Chemistry, 2025):
≈ marks a conversion by molar mass, not a printed value. Read-outs that look alike come from different tables or passages of the source.

Experiments:
[1] = tested on: C. albicans; conditions: cited from earlier work
[2] = tested on: E. coli; assay: MIC by broth microdilution (EUCAST); type: cell-based; conditions: Escherichia coli, CECT101; E. coli CECT 101, MHB, overnight 37 °C; read-out: Minimum inhibitory concentration (MIC90) E. coli
Description: (§1) The Gram-negative bacterial strain E. coli CECT 101 and P. aeruginosa ATCC 27853 were supplied by The Colección Española de Cultivos Tipo (CECT, Valencia, Spain) and the American Type Culture Collection (ATCC, Rockville, MD, USA). The Gram-positive bacterial strain S. aureus ATCC 25923, E. faecalis ATCC 29212 and the fungal strain C. albicans ATCC 1023 were supplied by The American Type Culture Collection (ATCC, Maryland, USA). Bacterial and yeast growth was carried out aerobically overnight at 35 °C in Mueller Hinton agar and Sabouraud dextrose agar, respectively (Scharlau, Spain).
(§2) The MIC of the compounds 1a–d, 2a–d, and 3a–d was determined by a broth microdilution method according to the EUCAST protocol. Briefly, 0.5 McFarland bacterial and fungal suspensions were prepared in Müeller Hinton broth (MHB) and Sabouraud dextrose broth (SDB) media, respectively. In a 96-well plate, serial dilutions of compounds 1a–d, 2a–d, 3a–d starting from 512 to 0 μg mL^−1 were made in MHB and SDB media, respectively. After incubation overnight at 37 °C, results were evaluated according to turbidity. Bacterial growth was determined by measuring absorbance at a wavelength of 600 nm and at 520 nm for fungi.[53–55]

[3] = tested on: P. aeruginosa; assay: MIC by broth microdilution (EUCAST); type: cell-based; conditions: Pseudomonas aeruginosa, ATCC27853; P. aeruginosa ATCC 27853, MHB, overnight 37 °C; read-out: Minimum inhibitory concentration (MIC90) P. aeruginosa
Description: as §1, §2

[4] = tested on: S. aureus; assay: MIC by broth microdilution (EUCAST); type: cell-based; conditions: Staphylococcus aureus, ATCC25923; S. aureus ATCC 25923, MHB, overnight 37 °C; read-out: Minimum inhibitory concentration (MIC90) S. aureus
Description: as §1, §2

[5] = tested on: E. faecalis; assay: MIC by broth microdilution (EUCAST); type: cell-based, Enterococcus faecalis; conditions: E. faecalis ATCC 29212, MHB, overnight 37 °C, read-out: Minimum inhibitory concentration (MIC90) E. faecalis
Description: as §1, §2

[6] = tested on: C. albicans; assay: MIC by broth microdilution (EUCAST); type: cell-based, Candida albicans; conditions: overnight 37 °C, read-out: Minimum inhibitory concentration (MIC90) C. albicans
Description: as §1, §2

[7] = tested on: red blood cells; assay: Lysis (hemolysis) assay; type: cell-based; conditions: human erythrocytes, 1 hour, 37 °C, 1% DMSO
Description: The hemolysis test was performed following literature procedures.[14] Preparation of the erythrocyte suspension: human blood (6 mL) was transferred to a Falcon tube. The sample was then centrifuged at 10 000 rpm for 10 minutes. After centrifugation, the supernatant was discarded, and the cells were resuspended in 4 mL of 10 mM PBS. This centrifugation and resuspension process was repeated twice to remove plasma residues. Finally, the resulting cell suspension was diluted at a 1 : 20 ratio with 10 mM PBS. Hemolysis assay: a total of 500 μL of the prepared erythrocyte suspension was aliquoted into Eppendorf tubes according to the experimental conditions. The final DMSO concentration in each condition was adjusted to 1%. A 1% Triton™ X-100 solution was used as the positive control (100% hemolysis), while the negative control consisted of erythrocytes suspended in PBS with 1% DMSO (0% hemolysis). Samples were incubated at 37 °C with shaking at 200 rpm for 1 hour. Following incubation, the samples were centrifuged at 10 000 rpm for 10 minutes. Subsequently, 200 μL of the supernatant was collected and transferred to a 96-well plate. Absorbance was measured at 520 nm using a plate reader.

[8] = tested on: C. albicans; assay: Mitochondrial membrane depolarization, DiOC6(3) staining, flow cytometry; type: cell-based, Candida albicans; conditions: 3.5 hours
[9] = tested on: S. aureus; conditions: cited from earlier work
[10] = tested on: E. coli; conditions: cited from earlier work
[11] = Enterococcus faecalis, ATCC29212
[12] = Candida albicans, ATCC1023, C. albicans ATCC 1023, SDB

MIC90 [2] [µM] | MIC90 [3] [µM] | MIC90 [4] [µM] | MIC90 [5, 11] [µM] | MIC90 [6, 12] [µM] | MIC90 ([6]; C. albicans ATCC 1023, SDB) [µM] | MIC [6, 12] [µM] | MIC90 [5] [µM] | Compound | MIC [1] [µM] | Lysis20 [7] [µM] | DiOC6(3) fluorescence intensity relative to control ([8]; compound at 6 μM) | MIC [9] [µM] | MIC [10] [µM] | DiOC6(3) fluorescence intensity relative to control ([8]; compound at 30 μM)
 |  |  |  |  |  |  |  | COc1ccc2cc3[n+](cc2c1OC)CCc1cc2c(cc1-3)OCO2 [berberine] | 24 |  |  |  |  | 
7.6 | 30 | 7.6 | 1 | 118 |  |  |  | Brc1ccc(-c2cc(-c3ccccc3)[n+](CCCCCCCCCC[n+]3c(-c4ccccc4)cc(-c4ccc(Br)cc4)cc3-c3ccccc3)c(-c3ccccc3)c2)cc1 [1b] |  | 20 |  |  |  | 
> 585 | > 293 | 146 | > 293 | > 293 |  |  |  | CCC[n+]1c(-c2ccccc2)cc(-c2ccccc2)cc1-c1ccccc1 [3a] |  | >256 | normal DiOC6(3) accumulation |  |  | 
 |  |  |  |  |  |  |  | CCCCCCCCN=c1ccn(CCCCCCCCCCn2ccc(=NCCCCCCCC)cc2)cc1 [OCT, octenidine] | 2.93 (≈ 1.61 µg/mL) |  |  |  |  | 
4.4 | 70 | 4.4 | 1.1 | 2.2 to 6.2 | 2.2 |  |  | c1ccc(-c2cc(-c3ccccc3)[n+](CCCCCCCCCC[n+]3c(-c4ccccc4)cc(-c4ccccc4)cc3-c3ccccc3)c(-c3ccccc3)c2)cc1 [1a] |  | 45 | about one-tenth |  |  | 
28 | > 112 | 28 | 3.6 | 2.2 to 6.2 | 3.6 |  |  | CCCCCCCCCCCC[n+]1c(-c2ccccc2)cc(-c2ccccc2)cc1-c1ccccc1 [2a] |  | 31 |  |  |  | 
> 380 | > 190 | 48 | 24 |  |  | > 90 |  | CCC[n+]1c(-c2ccc(Br)cc2)cc(-c2ccc(Br)cc2)cc1-c1ccc(Br)cc1 [3d] |  | >256 |  |  |  | 
 |  |  |  |  |  |  |  | Cc1cc(N)c2ccccc2[n+]1CCCCCCCCCC[n+]1c(C)cc(N)c2ccccc21 [DQA, dequalinium chloride] | 5.5 |  |  | 2.4 | 121 | 
> 430 | > 215 | 54 | 54 | > 215 |  |  |  | CCC[n+]1c(-c2ccc(Br)cc2)cc(-c2ccccc2)cc1-c1ccc(Br)cc1 [3c] |  | >256 |  |  |  | 
> 496 | > 248 | 31 | 124 | > 248 |  |  |  | CCC[n+]1c(-c2ccccc2)cc(-c2ccc(Br)cc2)cc1-c1ccccc1 [3b] |  | >256 |  |  |  | 
25 | > 200 | 12 | 24 |  |  |  |  | CCCCCCCCCCCC[n+]1c(-c2ccccc2)cc(-c2ccc(Br)cc2)cc1-c1ccccc1 [2b] |  | 26 |  |  |  | 
> 320 | > 160 | 40 | 40 | > 160 |  |  |  | CCCCCCCCCCCC[n+]1c(-c2ccc(Br)cc2)cc(-c2ccc(Br)cc2)cc1-c1ccc(Br)cc1 [2d] |  | 42 |  |  |  | 
46 | > 91 | 11 | 6 | > 91 | >91 |  | 6.0 | Brc1ccc(-c2cc(-c3ccc(Br)cc3)[n+](CCCCCCCCCC[n+]3c(-c4ccc(Br)cc4)cc(-c4ccc(Br)cc4)cc3-c3ccc(Br)cc3)c(-c3ccc(Br)cc3)c2)cc1 [1d] |  | >256 |  |  |  | 
 |  |  |  |  |  |  |  | N#CC(C#N)=NNc1ccc(OC(F)(F)F)cc1 [FCCP, carbonyl cyanide-4-(trifluoromethoxy)phenylhydrazone, reference compound] |  |  |  |  |  | approximately half
178 | > 178 | 22 | 11 | 178 |  |  |  | CCCCCCCCCCCC[n+]1c(-c2ccc(Br)cc2)cc(-c2ccccc2)cc1-c1ccc(Br)cc1 [2c] |  | 26 |  |  |  | 
 |  |  |  |  |  |  |  | benzalkonium chloride [BAC] |  |  |  | 4 | 63 | 
> 103 | > 103 | 13 | 13 | > 103 |  |  |  | Brc1ccc(-c2cc(-c3ccccc3)cc(-c3ccc(Br)cc3)[n+]2CCCCCCCCCC[n+]2c(-c3ccc(Br)cc3)cc(-c3ccccc3)cc2-c2ccc(Br)cc2)cc1 [1c] |  | 27 |  |  |  | 
